Experimental data published in paper PMC9196127, “Novel STAT3 Inhibitors Targeting STAT3 Dimerization by Binding to the STAT3 SH2 Domain” (Frontiers in Pharmacology, 2022).

Target: STAT3 (Homo sapiens, UniProt P40763)
Test: Fluorescence polarization (FP) competition assay with 5-FLU-GpYLPQTV-NH2
Assay type: binding
Design: purchased Abcam ab43618
Conditions: FP assay
Procedure: The FP assay was conducted as described in [Zhao et al. (2010]). The fluorochrome-labeled phosphopeptide, 5-FLU-G (pY)LPQTV-NH2, was synthesized by ProImmune (London, United Kingdom) with over 95% purity as a probe. The recombinant human STAT3 protein was purchased from Abcam (ab43618). To obtain an inhibitory effect, drugs (0–1,000 μM) and 150 nM human STAT3 were incubated at 37°C in an assay buffer (50 mm NaCl, 10 mm HEPES, 1 mm EDTA, and 0.01% Triton X-100) for 1 h prior to co-incubation with 10 nM of the fluorochrome-labeled peptide at RT for 30 min. The plate was sealed under nitrogen and left at RT for 72 h. The fluorescence polarization was then analyzed by the BioTek Synergy™ Neo2 Multi-Mode Microplate Reader (BioTek Instruments, Winooski, VT, United States). Binding curves were fit to a log-logistic function using the R package drc. Ki was determined from the resulting IC50 using the Cheng–Prusoff equation and the Kd for fluorochrome-labeled peptide binding to STAT3, Ki = IC50/(([L])/Kd) +1. […]
FIGURE 4 Fluorescence polarization (FP) assays identified 323s as direct STAT3 SH2 domain binders. (A) Fluorescence polarization (FP) analysis of the binding of 10 nM GpYLTQTV-NH2and 150 nM human STAT3 protein with increasing concentration of drugs. […]

Sequence of STAT3 (P40763 whole entry): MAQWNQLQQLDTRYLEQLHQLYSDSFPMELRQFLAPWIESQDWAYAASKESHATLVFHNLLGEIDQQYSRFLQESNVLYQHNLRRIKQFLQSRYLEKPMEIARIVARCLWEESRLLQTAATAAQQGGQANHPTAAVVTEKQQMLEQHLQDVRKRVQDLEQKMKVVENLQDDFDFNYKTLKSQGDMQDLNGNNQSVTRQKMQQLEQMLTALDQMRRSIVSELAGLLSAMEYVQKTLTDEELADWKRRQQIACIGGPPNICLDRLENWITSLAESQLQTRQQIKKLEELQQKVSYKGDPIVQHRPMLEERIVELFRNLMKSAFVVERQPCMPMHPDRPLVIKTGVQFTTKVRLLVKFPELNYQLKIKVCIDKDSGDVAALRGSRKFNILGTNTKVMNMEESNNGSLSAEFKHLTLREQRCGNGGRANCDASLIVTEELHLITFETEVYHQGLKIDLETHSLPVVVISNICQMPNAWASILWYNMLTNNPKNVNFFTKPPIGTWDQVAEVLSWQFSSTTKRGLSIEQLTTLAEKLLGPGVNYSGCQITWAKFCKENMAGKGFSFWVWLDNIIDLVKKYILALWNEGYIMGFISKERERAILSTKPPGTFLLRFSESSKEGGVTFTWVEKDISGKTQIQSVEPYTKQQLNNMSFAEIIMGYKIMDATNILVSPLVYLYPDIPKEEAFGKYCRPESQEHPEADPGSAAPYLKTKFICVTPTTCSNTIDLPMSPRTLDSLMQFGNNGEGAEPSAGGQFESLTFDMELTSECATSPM

Compound	potency to disrupt STAT3/GpYLPQTV relative to S3I-201
C[C@@H]1CCC(c2cc3c4c(cncc4c2)[C@@H](C)C3)=C1C=O [323–2, (15S,2R)-delavatine A]	around five-fold more potently than S3I-201
C[C@@H]1CCC(c2cc3c4c(cncc4c2)[C@H](C)C3)=C1C=O [323–1, (15R,2R)-delavatine A]	around five-fold more potently than S3I-201
